Results as given in US9242996B2 (Novartis AG, priority 2013, dated 2016).
pIC50: −log10 of the molar value.

biological target: activated ERK2 (Homo sapiens (Human), UniProt P28482); test: Activated ERK2 kinase assay, ERK2 New conditions (AlphaScreen, ERKtide phosphorylation); assay type: biochemical; conditions: 0.25 nM ERK2, 200 nM ERKtide peptide, 35 μM ATP, 30 min preincubation
Method: The assay is carried out in 50 mM HEPES [pH 7.5], 5 mM MgCl2, 1 mM DTT, 0.01% Tween-20, 0.05% BSA using 0.25 nM ERK2, 200 nM ERKtide peptide and 35 μM ATP (all concentrations are final in the reaction) in a total volume of 10.25 μL. […] Compound dilution series are prepared in 100% DMSO. ERK2 is preincubated with compounds for 30 minutes at ambient temperature. Reaction is initiated by addition of a substrate cocktail of ERKtide peptide and ATP and is allowed to proceed for 2-3 hours at ambient temperature. Reaction is terminated by addition of 10 μL of a 2× stop buffer consisting of 100 mM Tris-Cl [pH 7.5], 25 mM EDTA, 0.01% Tween 20, 10 μg/mL of AlphaScreen Protein A Acceptor Beads, 10 μg/mL of Streptavidin Donor Beads (PerkinElmer, Waltham, Mass.), and 1.4 μg/mL phospho-EGF Receptor (Thr669) antibody (Cat #3056, Cell Signaling Technology, Danvers, Mass.). Terminated reactions are read, after overnight incubation in the dark, on an EnVision Multilabel Plate Reader (PerkinElmer, Waltham, Mass.), with excitation and emission wavelengths set to 680 nm and 570 nm, respectively. IC50 values are determined using a four-parameter fit.

Chain of activated ERK2 (P28482 whole entry): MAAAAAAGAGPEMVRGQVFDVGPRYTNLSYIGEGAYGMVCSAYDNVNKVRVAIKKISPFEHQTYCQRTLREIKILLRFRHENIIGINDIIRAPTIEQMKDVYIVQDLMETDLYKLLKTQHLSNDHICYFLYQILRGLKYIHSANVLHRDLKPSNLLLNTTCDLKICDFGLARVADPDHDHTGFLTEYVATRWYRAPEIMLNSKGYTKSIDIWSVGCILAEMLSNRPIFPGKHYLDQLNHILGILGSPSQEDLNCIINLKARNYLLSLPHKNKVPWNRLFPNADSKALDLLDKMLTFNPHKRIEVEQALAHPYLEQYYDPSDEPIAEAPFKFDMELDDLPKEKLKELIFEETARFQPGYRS

Row | Structure (SMILES) | pIC50
1 | Cn1cc(-c2cnc(N)c(-c3ccc(C(=O)NCc4cccc(C(F)F)c4)c(F)c3)c2)cn1 [Example 245, 4-(2-amino-5-(1-methyl-1H-pyrazol-4-yl)pyridin-3-yl)-N-(3-(difluoromethyl)benzyl)-2-fluorobenzamide] | 8.57
2 | CCn1cc(-c2cnc(N)c(-c3ccc(C(=O)N[C@H](CO)c4cccc(F)c4)c(F)c3)c2)cn1 [Example 298, (S)-4-(2-amino-5-(1-ethyl-1H-pyrazol-4-yl)pyridin-3-yl)-2-fluoro-N-(1-(3-fluorophenyl)-2-hydroxyethyl) benzamide] | 8.71
3 | C[C@@H](NC(=O)c1ccc(-c2nc([C@H]3CC[C@H](O)CC3)cnc2N)cc1F)c1cccc(Cl)c1 [Example 415, 4-(3-amino-6-((1r,4R)-4-hydroxy-cyclohexyl)pyrazin-2-yl)-N-((R)-1-(3-chlorophenyl)ethyl)-2-fluorobenzamide] | 8.77
4 | NC[C@@H](NC(=O)c1ccc(-c2nc(C3CCC(F)(F)CC3)cnc2N)cc1F)c1cccc(Cl)c1 [Example 197, (S)—N-(2-amino-1-(3-chlorophenyl)ethyl)-4-(3-amino-6-(4,4-difluorocyclohexyl)pyrazin-2-yl)-2-fluorobenzamide] | 8.68
5 | CNC(=O)c1ccc(-c2nc(C3CCOCC3)cnc2N)cc1F [Example 320, 4-(3-amino-6-(tetrahydro-2H-pyran-4-yl)pyrazin-2-yl)-2-fluoro-N-methylbenzamide] | 6.45
6 | Cc1cccc([C@@H](CO)NC(=O)c2ccc(-c3cc(-c4ccnn4C)cnc3N)cc2F)c1 [Example 231, (S)-4-(2-amino-5-(1-methyl-1H-pyrazol-5-yl)pyridin-3-yl)-2-fluoro-N-(2-hydroxy-1-(m-tolyl)ethyl) benzamide] | 9.66
7 | Cc1cc(-c2cc(-c3cnn(C)c3)cnc2N)ccc1C(=O)N[C@H](CO)c1ccccc1 [Example 269, (S)-4-(2-amino-5-(1-methyl-1H-pyrazol-4-yl)pyridin-3-yl)-N-(2-hydroxy-1-phenylethyl)-2-methylbenzamide] | 8.97
8 | Nc1ncc(-c2cn[nH]c2)cc1-c1ccc(C(=O)N[C@H](CO)c2ccccc2)c(F)c1 [Example 290, (S)-4-(2-amino-5-(1H-pyrazol-4-yl)pyridin-3-yl)-2-fluoro-N-(2-hydroxy-1-phenylethyl) benzamide] | 8.76
9 | CN1C[C@H](c2cnc(N)c(-c3ccc(C(=O)N[C@H](CO)c4cccc(Cl)c4)c(F)c3)c2)CC1=O [Example 44, 4-(2-amino-5-((S)-1-methyl-5-oxopyrrolidin-3-yl)pyridin-3-yl)-N—((S)-1-(3-chlorophenyl)-2-hydroxyethyl)-2-fluorobenzamide] | 8.32
10 | Nc1ncc(C2CCOCC2)nc1-c1ccc(C(=O)NC(c2ccccc2)C(F)(F)F)c(F)c1 (racemic) [Example 51, (+/−)-4-(3-amino-6-(tetrahydro-2H-pyran-4-yl)pyrazin-2-yl)-2-fluoro-N-(2,2,2-trifluoro-1-phenylethyl)benzamide] | 7.57
11 | COCCn1cc(-c2cnc(N)c(-c3ccc(C(=O)N[C@H](CO)c4ccccc4)c(F)c3)c2)cn1 [Example 171, (S)-4-(2-amino-5-(1-(2-methoxyethyl)-1H-pyrazol-4-yl)pyridin-3-yl)-2-fluoro-N-(2-hydroxy-1-phenylethyl)benzamide] | 8.96
12 | CCn1cc(-c2cnc(N)c(-c3ccc(C(=O)N[C@H](CO)c4cccc(S(C)(=O)=O)c4)c(F)c3)c2)cn1 [Example 296, (S)-4-(2-amino-5-(1-ethyl-1H-pyrazol-4-yl)pyridin-3-yl)-2-fluoro-N-(2-hydroxy-1-(3-(methylsulfonyl)phenyl)ethyl) benzamide] | 8.97
13 | Cn1cc(-c2cnc(N)c(-c3ccc(C(=O)N[C@H](CO)c4cccc(F)c4)c(F)c3)c2)c(C#N)n1 [Example 159, (S)-4-(2-amino-5-(3-cyano-1-methyl-1H-pyrazol-4-yl)pyridin-3-yl)-2-fluoro-N-(1-(3-fluorophenyl)-2-hydroxyethyl)benzamide] | 8.50
14 | CN1C[C@@H](c2cnc(N)c(-c3ccc(C(=O)N[C@H](CO)c4cccc(Cl)c4)c(F)c3)c2)CCC1=O [Example 36, 4-(2-amino-5-((R)-1-methyl-6-oxopiperidin-3-yl)pyridin-3-yl)-N—((S)-1-(3-chlorophenyl)-2-hydroxyethyl)-2-fluorobenzamide] | 8.80
15 | Nc1ncc([C@H]2CC[C@H](O)CC2)nc1-c1ccc(C(=O)NCc2ccccc2)c(F)c1 [Example 14, 4-(3-amino-6-((1r,4r)-4-hydroxycyclohexyl)pyrazin-2-yl)-N-benzyl-2-fluorobenzamide] | 7.90
16 | Cn1nncc1-c1cnc(N)c(-c2ccc(C(=O)N[C@H](CO)c3cccc(F)c3)c(F)c2)c1 [Example 305, (S)-4-(2-amino-5-(1-methyl-1H-1,2,3-triazol-5-yl)pyridin-3-yl)-2-fluoro-N-(1-(3-fluorophenyl)-2-hydroxyethyl) benzamide] | 8.72
17 | C[C@H]1C[C@@H](c2cnc(N)c(-c3ccc(C(=O)NCc4cccc(S(C)(=O)=O)c4)cc3)n2)CCO1 [Example 101, 4-(3-amino-6-((2S,4S)-2-methyltetrahydro-2H-pyran-4-yl)pyrazin-2-yl)-N-(3-(methylsulfonyl)benzyl)benzamide] | 7.11
18 | CS(=O)(=O)c1cc(F)cc(CNC(=O)c2ccc(-c3nc(C4CCOCC4)cnc3N)cc2F)c1 [Example 310, 4-(3-amino-6-(tetrahydro-2H-pyran-4-yl)pyrazin-2-yl)-2-fluoro-N-(3-fluoro-5-(methylsulfonyl)benzyl)benzamide] | 9.62

Continued, values first:

Row | pIC50 | Structure (SMILES)
19 | 6.45 | Nc1ncc([C@H]2CCS(=O)(=O)C2)cc1-c1ccc(C(=O)NCc2ccccc2)c(F)c1 (single isomer, unassigned) [Example 6]
20 | 8.15 | Nc1ncc(C2CC2)nc1-c1ccc(C(=O)N[C@H](CO)c2ccccc2)c(F)c1 [Example 251, (S)-4-(3-amino-6-cyclo-propylpyrazin-2-yl)-2-fluoro-N-(2-hydroxy-1-phenylethyl) benzamide]
21 | 9.40 | Nc1ncc(C2CCSCC2)cc1-c1ccc(C(=O)N[C@H](CO)c2cccc(Cl)c2)c(F)c1 [Example 212, (S)-4-(2-amino-5-(tetrahydro-2H-thiopyran-4-yl)pyridin-3-yl)-N-(1-(3-chlorophenyl)-2-hydroxyethyl)-2-fluorobenzamide]
22 | 8.26 | Nc1ncc([C@H]2CC[S@+]([O-])CC2)cc1-c1ccc(C(=O)N[C@H](CO)c2cccc(Cl)c2)c(F)c1 [Example 211, 4-(2-amino-5-((1S,4r)-1-oxidotetrahydro-2H-thiopyran-4-yl)pyridin-3-yl)-N—((S)-1-(3-chlorophenyl)-2-hydroxyethyl)-2-fluorobenzamide]
23 | 6.00 | Nc1ncc(C2CCS(=O)(=O)CC2)cc1-c1ccc2c(c1)OCCN(Cc1ccccc1)C2=O [Example 110, 8-(2-amino-5-(1,1-dioxidotetrahydro-2H-thiopyran-4-yl)pyridin-3-yl)-4-benzyl-3,4-dihydrobenzo[f][1,4]oxazepin-5(2H)-one]
24 | 7.19 | COC(=O)N1CCC(c2cnc(N)c(-c3ccc(C(=O)N[C@H](CO)c4ccccc4)c(F)c3)c2)C1 (stereo partly drawn) [Example 62, methyl 3-(6-amino-5-(3-fluoro-4-(((S)-2-hydroxy-1-phenylethyl)carbamoyl)phenyl)pyridin-3-yl)pyrrolidine-1-carboxylate]
25 | 6.56 | Nc1ncc([C@@H]2CCS(=O)(=O)C2)cc1-c1ccc(C(=O)NCc2ccccc2)c(F)c1 (single isomer, unassigned) [Example 5]
26 | 8.29 | Cc1ncc(-c2cnc(N)c(-c3ccc(C(=O)N[C@H](CO)c4cccc(F)c4)c(F)c3)c2)n1C [Example 163, (S)-4-(2-amino-5-(1,2-dimethyl-1H-imidazol-5-yl)pyridin-3-yl)-2-fluoro-N-(1-(3-fluorophenyl)-2-hydroxyethyl)benzamide]
27 | 7.61 | Nc1ncc([C@@H]2CN[C@H](C(=O)O)C2)cc1-c1ccc(C(=O)N[C@H](CO)c2cccc(Cl)c2)c(F)c1 [Example 222, (2S,4R)-4-(6-amino-5-(4-(((S)-1-(3-chlorophenyl)-2-hydroxyethyl)carbamoyl)-3-fluorophenyl)pyridin-3-yl)pyrrolidine-2-carboxylic acid]
28 | 9.21 | CCn1cc(-c2cnc(N)c(-c3ccc(C(=O)N[C@H](C)c4cc(F)cc(S(C)(=O)=O)c4)c(F)c3)c2)cn1 [Example 313, (R)-4-(2-amino-5-(1-ethyl-1H-pyrazol-4-yl)pyridin-3-yl)-2-fluoro-N-(1-(3-fluoro-5-(methylsulfonyl)phenyl)ethyl) benzamide]
29 | 7.49 | Nc1ncc([C@@H]2CNC(=O)C2)cc1-c1ccc(C(=O)N[C@H](CO)c2ccccc2)c(F)c1 [Example 219, 4-(2-amino-5-((R)-5-oxopyrrolidin-3-yl)pyridin-3-yl)-2-fluoro-N—((S)-2-hydroxy-1-phenylethyl)benzamide]
30 | 8.83 | Cn1cncc1-c1cnc(N)c(-c2ccc(C(=O)N[C@H](CO)c3cccc(F)c3)c(F)c2)c1 [Example 234, (S)-4-(2-amino-5-(1-methyl-1H-imidazol-5-yl)pyridin-3-yl)-2-fluoro-N-(1-(3-fluorophenyl)-2-hydroxyethyl) benzamide]
31 | 7.51 | Nc1ncc(CCO)nc1-c1ccc(C(=O)N[C@H](CO)c2ccccc2)c(F)c1 [Example 111, (S)-4-(3-amino-6-(2-hydroxyethyl)pyrazin-2-yl)-2-fluoro-N-(2-hydroxy-1-phenylethyl)benzamide]
